Source: ChEMBL document CHEMBL1201862, “PubChem BioAssay data set” (2004)
Activity calls are given as the source filed them.

Columns and labels:
[1] = molecular target: Cytochrome P450 2C19 (Homo sapiens, UniProt P33261); test: Cytochrome panel assay with activity outcomes. Panel member name: p450-cyp2c19 Compounds with AC50 equal or less than 10 uM are considered active; assay type: functional; details: read-out: AC50
[2] = molecular target: Cytochrome P450 3A4 (Homo sapiens, UniProt P08684);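 further: CYP3A4 tested as one member of a cytochrome P450 panel screen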
Chain of Cytochrome P450 3A4 (P08684 whole entry): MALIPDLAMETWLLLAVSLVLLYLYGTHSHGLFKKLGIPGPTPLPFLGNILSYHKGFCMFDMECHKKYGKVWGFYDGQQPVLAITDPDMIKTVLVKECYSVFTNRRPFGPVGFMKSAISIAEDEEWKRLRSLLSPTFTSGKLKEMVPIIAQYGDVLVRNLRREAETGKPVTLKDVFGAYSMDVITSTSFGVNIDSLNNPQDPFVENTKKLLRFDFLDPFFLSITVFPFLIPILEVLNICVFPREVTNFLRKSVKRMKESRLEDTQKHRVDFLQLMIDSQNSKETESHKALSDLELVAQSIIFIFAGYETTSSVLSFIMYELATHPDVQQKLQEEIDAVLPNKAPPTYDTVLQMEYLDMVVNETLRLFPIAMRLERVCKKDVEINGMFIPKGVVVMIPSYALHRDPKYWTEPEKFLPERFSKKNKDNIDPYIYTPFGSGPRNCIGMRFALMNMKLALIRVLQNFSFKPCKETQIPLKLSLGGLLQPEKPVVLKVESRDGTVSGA

[3] = molecular target: Estrogen receptor beta (Homo sapiens, UniProt Q92731);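 further: recombinant ER-beta bound to coactivator SRC1 peptide in presence of estradiol agonist; inhibitors block coactivator peptide binding and lower the FRET signal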
Chain of Estrogen receptor beta (Q92731 whole entry): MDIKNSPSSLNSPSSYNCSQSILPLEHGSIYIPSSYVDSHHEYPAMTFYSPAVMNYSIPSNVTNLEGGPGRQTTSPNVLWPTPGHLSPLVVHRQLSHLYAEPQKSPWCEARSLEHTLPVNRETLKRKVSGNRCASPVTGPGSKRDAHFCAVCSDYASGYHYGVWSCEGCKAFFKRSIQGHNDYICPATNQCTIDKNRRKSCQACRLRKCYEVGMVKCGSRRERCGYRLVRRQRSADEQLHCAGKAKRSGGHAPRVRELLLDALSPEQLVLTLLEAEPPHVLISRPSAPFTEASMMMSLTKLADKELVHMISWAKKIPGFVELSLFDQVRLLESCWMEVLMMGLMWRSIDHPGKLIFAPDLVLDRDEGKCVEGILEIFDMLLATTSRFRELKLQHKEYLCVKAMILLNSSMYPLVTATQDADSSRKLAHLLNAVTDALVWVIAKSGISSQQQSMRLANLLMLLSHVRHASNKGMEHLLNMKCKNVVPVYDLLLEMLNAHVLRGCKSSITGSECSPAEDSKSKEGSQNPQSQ

[4] = molecular target: T1, Coagulation factor XII (Homo sapiens, UniProt P00748); assay type: functional;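 further: activated factor XIIa alpha cleaving a fluorogenic AMC peptide substrate; inhibitor potency from loss of enzyme activity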
T1 sequence (P00748 whole entry): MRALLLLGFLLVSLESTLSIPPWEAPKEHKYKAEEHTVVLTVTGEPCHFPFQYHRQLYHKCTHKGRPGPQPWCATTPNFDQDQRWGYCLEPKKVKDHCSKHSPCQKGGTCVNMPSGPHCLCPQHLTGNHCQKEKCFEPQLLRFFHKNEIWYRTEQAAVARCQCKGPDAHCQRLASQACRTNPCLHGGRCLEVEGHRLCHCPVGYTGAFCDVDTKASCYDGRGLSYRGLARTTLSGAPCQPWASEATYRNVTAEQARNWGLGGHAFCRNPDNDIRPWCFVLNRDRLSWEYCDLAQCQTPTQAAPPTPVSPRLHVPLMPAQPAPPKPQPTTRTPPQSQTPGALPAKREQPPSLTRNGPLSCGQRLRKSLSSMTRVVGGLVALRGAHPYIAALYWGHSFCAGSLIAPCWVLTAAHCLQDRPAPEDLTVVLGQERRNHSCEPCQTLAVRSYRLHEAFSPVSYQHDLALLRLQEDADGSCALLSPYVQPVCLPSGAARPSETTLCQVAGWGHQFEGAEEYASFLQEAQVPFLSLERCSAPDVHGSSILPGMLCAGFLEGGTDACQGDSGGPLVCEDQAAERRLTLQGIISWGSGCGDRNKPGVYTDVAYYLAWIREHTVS

[5] = Luminescence Cell-Based Dose Response to Identify Activators of 5'UTR Stem-Loop Driven Prion Protein mRNA Translation in H4-C Neuroglioblastoma Cells. [Related pubchem assays: 1829 (Project Summary), 1814 (Primary HTS)]; assay type: functional
[6] = molecular target: Peroxisome proliferator-activated receptor gamma/Nuclear receptor coactivator 1 (Homo sapiens, UniProt P37231); test: (§1) TR-FRET dose response biochemical High Throughput Screening assay for agonists of the steroid receptor coactivator 1 (SRC-1) recruitment by the peroxisome proliferator-activated receptor gamma (PPAR gamma): non-selective agonists. [Related pubchem assays (depositor defined):AID1300, AID1808, AID504735, AID631]; assay type: protein assay
[7] = Luminescence Cell-Based Dose Response HTS to Identify Activators of Luciferase Translation or Activity in H4 […] Cells. [Related pubchem assays: 1829 (Project Summary), 1814 (Primary HTS)]; assay type: functional
[8] = molecular target: Peroxisome proliferator-activated receptor gamma/Nuclear receptor coactivator 3 (Homo sapiens, UniProt P37231); test: as §1, with “3 (SRC-3)” for “1 (SRC-1)”, “assays: 1301 (Confirmation screen.), 1048 (Primary screen.)]” for “assays (depositor defined):AID1300, AID1808, AID504735, AID631]”; assay type: functional
[9] = tested on: H4; test: Luminescence Cell-Based Dose Response HTS to Identify Activators of 5'UTR Stem-Loop Driven Prion Protein mRNA Translation in H4 Neuroglioblastoma Cells. [Related pubchem assays: 1829 (Project Summary), 1814 (Primary HTS)]; assay type: functional; details: Homo sapiens
[10] = Luminescence Cell-Based Dose Response to Identify Activators of Luciferase Translation or Activity in H4-C Neuroglioblastoma Cells. [Related pubchem assays: 1829 (Project Summary), 1814 (Primary HTS)]; assay type: functional
[11] = molecular target: Peroxisome proliferator-activated receptor gamma/Nuclear receptor coactivator 2 (Homo sapiens, UniProt P37231); test: TR-FRET dose response biochemical High Throughput Screening assay for agonists of the steroid receptor coactivator 2 (SRC-2) recruitment by the peroxisome proliferator-activated receptor gamma (PPAR gamma): non-selective agonists. [Related pubchem assays: 1297, 1032 ]; assay type: functional
[12] = Luminescence Cell-Based Dose Confirmation to Identify Activators of 5'UTR Stem-Loop Driven Alpha-Synuclein mRNA Translation in H4 Neuroglioblastoma Cells. [Related pubchem assays: 1829 (Project Summary), 1814 (Primary HTS)]; assay type: functional
[13] = cytotoxicity in HPDE-C7 cells, cell-based, fluorescence, HTS (AID 430); assay type: functional; details: Homo sapiens
[14] = cytotoxicity in KRAS-transformed pancreatic duct cells, primary screen, cell-based, fluorescence, HTS (AID 431); assay type: functional; details: Homo sapiens;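 further: cell line used: HPDE-C7K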
[15] = molecular target: T2, Voltage-gated N-type calcium channel alpha-1B subunit/Amyloid beta A4 precursor protein-binding family A member 1 (Homo sapiens, UniProt Q00975+Q02410); assay type: protein assay
T2 sequence (Q00975 whole entry): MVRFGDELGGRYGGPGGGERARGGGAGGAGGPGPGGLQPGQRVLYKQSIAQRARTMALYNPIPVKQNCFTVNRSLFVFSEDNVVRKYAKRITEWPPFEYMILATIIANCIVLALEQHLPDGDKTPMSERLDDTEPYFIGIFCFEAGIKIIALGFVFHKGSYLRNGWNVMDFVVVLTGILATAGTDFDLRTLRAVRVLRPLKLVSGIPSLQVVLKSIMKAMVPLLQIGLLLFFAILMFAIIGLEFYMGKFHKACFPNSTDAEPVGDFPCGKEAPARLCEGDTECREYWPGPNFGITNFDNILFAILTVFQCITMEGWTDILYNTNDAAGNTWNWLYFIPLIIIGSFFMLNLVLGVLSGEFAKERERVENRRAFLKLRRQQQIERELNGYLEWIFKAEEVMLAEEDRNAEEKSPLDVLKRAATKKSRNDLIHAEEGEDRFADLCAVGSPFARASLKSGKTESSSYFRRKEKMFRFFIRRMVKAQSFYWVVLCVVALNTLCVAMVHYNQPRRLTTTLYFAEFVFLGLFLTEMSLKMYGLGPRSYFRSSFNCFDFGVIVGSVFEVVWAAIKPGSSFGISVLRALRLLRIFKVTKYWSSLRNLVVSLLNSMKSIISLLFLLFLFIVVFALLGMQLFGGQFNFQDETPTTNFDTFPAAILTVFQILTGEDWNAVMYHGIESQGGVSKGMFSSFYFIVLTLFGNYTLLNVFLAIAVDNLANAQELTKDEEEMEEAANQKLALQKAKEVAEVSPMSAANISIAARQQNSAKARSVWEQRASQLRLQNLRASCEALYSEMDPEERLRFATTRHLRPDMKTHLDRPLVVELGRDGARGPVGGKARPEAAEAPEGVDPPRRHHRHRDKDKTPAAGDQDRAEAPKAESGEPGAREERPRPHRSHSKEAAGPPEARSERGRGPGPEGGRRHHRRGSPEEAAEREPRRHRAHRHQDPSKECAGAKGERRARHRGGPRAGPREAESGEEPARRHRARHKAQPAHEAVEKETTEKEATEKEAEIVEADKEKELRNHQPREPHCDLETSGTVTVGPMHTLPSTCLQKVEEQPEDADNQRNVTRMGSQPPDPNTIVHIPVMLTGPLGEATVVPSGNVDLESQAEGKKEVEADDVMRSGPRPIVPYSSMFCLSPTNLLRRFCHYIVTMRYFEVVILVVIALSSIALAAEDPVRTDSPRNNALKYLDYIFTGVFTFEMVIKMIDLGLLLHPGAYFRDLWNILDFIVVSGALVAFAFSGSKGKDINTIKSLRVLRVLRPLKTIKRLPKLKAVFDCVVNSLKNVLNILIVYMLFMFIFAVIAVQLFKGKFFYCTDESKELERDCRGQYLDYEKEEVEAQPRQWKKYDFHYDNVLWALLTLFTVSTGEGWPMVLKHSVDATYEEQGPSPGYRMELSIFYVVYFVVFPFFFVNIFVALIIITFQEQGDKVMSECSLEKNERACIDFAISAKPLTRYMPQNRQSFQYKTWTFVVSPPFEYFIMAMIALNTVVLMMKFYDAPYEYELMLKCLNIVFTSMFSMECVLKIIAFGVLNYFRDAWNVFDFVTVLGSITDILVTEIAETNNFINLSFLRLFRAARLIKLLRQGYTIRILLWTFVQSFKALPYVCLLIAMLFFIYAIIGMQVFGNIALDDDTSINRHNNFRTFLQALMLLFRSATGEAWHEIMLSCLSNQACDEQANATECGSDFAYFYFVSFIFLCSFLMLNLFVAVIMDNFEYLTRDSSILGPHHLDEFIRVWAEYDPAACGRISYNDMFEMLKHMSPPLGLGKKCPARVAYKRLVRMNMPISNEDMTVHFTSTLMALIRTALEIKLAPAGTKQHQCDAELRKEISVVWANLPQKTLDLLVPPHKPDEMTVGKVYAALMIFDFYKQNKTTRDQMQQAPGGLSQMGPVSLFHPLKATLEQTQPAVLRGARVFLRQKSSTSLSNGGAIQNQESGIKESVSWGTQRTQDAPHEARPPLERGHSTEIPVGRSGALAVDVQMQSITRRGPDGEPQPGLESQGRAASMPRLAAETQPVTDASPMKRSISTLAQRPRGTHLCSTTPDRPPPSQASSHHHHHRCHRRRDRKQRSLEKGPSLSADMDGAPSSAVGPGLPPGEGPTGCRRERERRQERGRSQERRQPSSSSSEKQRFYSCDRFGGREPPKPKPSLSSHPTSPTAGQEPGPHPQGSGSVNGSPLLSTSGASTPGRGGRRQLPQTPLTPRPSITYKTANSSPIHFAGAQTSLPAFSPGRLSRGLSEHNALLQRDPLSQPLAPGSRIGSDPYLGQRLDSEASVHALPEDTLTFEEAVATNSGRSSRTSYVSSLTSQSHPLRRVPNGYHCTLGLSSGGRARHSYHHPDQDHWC
T2 sequence (Q02410 whole entry): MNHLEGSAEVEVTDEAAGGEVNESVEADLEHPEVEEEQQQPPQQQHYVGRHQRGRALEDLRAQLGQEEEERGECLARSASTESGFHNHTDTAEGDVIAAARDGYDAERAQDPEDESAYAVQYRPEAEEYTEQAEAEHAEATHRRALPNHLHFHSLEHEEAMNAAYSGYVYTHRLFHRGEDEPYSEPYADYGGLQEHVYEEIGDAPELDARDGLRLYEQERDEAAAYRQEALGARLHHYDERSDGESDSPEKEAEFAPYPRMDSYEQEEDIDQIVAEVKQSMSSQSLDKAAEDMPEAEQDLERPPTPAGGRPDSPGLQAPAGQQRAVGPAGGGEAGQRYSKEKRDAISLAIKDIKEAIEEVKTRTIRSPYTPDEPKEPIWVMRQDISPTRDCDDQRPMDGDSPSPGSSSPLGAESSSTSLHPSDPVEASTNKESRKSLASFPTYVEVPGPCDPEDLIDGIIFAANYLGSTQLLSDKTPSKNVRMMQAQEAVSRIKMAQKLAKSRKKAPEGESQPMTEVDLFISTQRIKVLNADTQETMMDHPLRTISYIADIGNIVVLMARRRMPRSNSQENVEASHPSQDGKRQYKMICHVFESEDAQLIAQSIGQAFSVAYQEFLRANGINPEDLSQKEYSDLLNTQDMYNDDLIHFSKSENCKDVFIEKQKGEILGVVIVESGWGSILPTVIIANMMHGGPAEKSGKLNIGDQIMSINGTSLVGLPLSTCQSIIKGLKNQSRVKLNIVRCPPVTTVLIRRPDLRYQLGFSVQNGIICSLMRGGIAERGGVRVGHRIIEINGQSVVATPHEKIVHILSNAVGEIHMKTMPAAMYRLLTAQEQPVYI

[16] = molecular target: T2, Voltage-gated N-type calcium channel alpha-1B subunit/Amyloid beta A4 precursor protein-binding family A member 1; assay type: protein assay; remark: listed apart in the source
[17] = molecular target: T3, Polyadenylate-binding protein 1 (Homo sapiens, UniProt P11940); test: PABP1 MLLE–PAM2 interaction inhibitors, dose response, miRNA deadenylation inhibitor project, biochemical, fluorescence polarization, Cy5-PAM2 peptide, secondary (AID 602260); assay type: functional; details: read-out: IC50_Mean
[18] = molecular target: T3, Polyadenylate-binding protein 1; test: PABP1 MLLE–PAM2 binding inhibitor potency, dose response, biochemical, fluorescence polarization, FITC-PAM2 peptide (AID 602259); assay type: functional; details: read-out: IC50_Mean
[19] = Luminescence Cell-Based Dose Retest to Confirm Inhibitors of Cancer Stem Cells. [Related pubchem assays (depositor defined):AID2717, AID2721]; assay type: functional; details: Homo sapiens
[20] = molecular target: Disintegrin and metalloproteinase domain-containing protein 17 (Homo sapiens, UniProt P78536); test: exosite inhibitors of ADAM17, dose response, biochemical (AID 743260)
Chain of Disintegrin and metalloproteinase domain-containing protein 17 (P78536 whole entry, the tested form may be a part): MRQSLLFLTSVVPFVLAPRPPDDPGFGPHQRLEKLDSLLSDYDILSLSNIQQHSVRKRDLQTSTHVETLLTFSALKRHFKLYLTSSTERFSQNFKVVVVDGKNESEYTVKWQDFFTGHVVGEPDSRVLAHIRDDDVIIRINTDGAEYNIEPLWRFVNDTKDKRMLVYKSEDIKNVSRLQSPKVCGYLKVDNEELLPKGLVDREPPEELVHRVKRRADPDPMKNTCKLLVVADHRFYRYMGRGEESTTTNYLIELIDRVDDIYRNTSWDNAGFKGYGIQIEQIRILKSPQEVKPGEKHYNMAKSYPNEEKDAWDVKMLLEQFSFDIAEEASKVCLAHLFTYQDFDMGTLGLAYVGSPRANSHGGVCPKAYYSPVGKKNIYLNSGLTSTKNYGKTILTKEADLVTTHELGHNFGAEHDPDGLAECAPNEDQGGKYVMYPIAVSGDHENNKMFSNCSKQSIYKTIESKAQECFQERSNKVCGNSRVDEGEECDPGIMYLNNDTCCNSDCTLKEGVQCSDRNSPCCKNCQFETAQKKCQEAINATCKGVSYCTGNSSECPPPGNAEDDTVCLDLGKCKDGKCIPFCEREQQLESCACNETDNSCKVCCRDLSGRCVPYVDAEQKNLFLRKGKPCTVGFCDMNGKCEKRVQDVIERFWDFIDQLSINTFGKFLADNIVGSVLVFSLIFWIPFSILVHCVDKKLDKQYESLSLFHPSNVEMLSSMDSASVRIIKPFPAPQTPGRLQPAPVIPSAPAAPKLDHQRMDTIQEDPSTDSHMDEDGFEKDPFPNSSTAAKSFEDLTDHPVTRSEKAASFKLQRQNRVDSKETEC

[21] = ADAM10 protease inhibitors, dose response, selectivity assay for ADAM17 exosite inhibitor project, biochemical, FRET peptide substrate, recombinant human ADAM10 (AID 743259);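 further: ADAM10 enzyme cleaving a FRET peptide substrate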
[22] = molecular target: T4, Histone-lysine N-methyltransferase NSD2 (Homo sapiens, UniProt O96028); assay type: biochemical
T4 sequence (O96028 whole entry): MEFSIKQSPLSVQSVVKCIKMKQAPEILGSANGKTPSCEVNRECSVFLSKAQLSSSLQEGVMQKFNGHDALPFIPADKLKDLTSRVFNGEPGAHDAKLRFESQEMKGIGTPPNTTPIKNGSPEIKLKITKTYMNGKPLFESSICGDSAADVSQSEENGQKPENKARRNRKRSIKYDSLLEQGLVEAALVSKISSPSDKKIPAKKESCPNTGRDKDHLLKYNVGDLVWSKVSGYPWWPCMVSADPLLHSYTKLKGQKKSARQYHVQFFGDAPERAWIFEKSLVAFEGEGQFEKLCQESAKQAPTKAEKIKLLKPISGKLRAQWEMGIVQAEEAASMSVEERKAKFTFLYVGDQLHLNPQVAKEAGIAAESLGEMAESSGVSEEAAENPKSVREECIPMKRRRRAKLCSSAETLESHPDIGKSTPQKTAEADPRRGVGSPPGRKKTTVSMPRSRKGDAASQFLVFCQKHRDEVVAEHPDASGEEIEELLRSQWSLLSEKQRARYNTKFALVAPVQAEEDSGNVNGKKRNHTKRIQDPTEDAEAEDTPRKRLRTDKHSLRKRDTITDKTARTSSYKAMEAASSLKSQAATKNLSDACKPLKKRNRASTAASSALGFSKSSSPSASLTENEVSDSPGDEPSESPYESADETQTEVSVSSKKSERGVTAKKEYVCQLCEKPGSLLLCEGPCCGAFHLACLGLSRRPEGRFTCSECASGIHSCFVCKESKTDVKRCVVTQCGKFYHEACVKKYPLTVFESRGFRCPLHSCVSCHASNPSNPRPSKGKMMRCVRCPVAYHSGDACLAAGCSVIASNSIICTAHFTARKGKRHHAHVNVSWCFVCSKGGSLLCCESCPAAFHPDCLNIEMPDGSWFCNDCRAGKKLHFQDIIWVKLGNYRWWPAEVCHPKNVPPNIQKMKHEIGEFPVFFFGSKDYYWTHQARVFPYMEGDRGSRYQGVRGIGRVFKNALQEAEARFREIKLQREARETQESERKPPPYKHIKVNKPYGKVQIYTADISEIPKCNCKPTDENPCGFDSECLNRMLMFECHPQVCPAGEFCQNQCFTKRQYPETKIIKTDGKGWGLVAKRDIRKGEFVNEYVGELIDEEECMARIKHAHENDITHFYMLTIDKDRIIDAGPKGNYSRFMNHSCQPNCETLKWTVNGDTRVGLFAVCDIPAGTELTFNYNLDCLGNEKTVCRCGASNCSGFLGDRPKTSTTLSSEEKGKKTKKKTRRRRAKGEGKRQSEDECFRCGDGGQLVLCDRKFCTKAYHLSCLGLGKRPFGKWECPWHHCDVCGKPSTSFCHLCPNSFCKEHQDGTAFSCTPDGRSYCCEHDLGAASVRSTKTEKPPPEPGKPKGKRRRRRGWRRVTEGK

[23] = HEp-2 cell cytotoxicity, dose response, cytotoxicity control for RSV inhibitor project, HTS (AID 2410); assay type: functional; details: human respiratory syncytial virus
[24] = Luminescence Cell-Based Dose Confirmation HTS to Identify Activators of 5'UTR Stem-Loop Driven Alpha-Synuclein mRNA Translation in H4 Neuroglioblastoma Cells. [Related pubchem assays: 1829 (Project Summary), 1814 (Primary HTS)]; assay type: functional
[25] = growth suppression of PTEN-null colon cells, dose response, cell-based, HCT116 PTEN knockout (AID 1047); assay type: functional;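 further: HCT116 colon tumor cells with PTEN knocked out; cells exposed to compound for 60 hours before readout; potency for loss of cell viability measured by luminescence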
[26] = growth suppression of beta-catenin-knockout colon cells, dose response, cell-based, HCT116, human colon tumor (AID 1045); assay type: functional;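 further: HCT116 colon tumor cells with beta catenin knocked out; cells exposed to compound for 60 hours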
[27] = molecular target: FAD-linked sulfhydryl oxidase ALR (Homo sapiens, UniProt P55789); test: inhibitors of human ALR sulfhydryl oxidase, dose response, biochemical, H2O2 detection, luminescence, cherry-pick (AID 493248)
[28] = molecular target: Cytochrome P450 2C9 (Homo sapiens, UniProt P11712)
[29] = molecular target: DNA dC->dU-editing enzyme APOBEC-3G (Homo sapiens, UniProt Q9HC16); test: Dose Response confirmation of small molecule APOBEC3G DNA Deaminase Inhibitors via a fluorescence-based single-stranded DNA deaminase assay. [Related pubchem assays (depositor defined):AID493012, AID493028]; assay type: functional

SMILES: COC(=O)N1CCC2(CC1)CN(C(c1ccccc1)c1ccccc1)C2
- AC50 [1]: 39.8 µM (inconclusive)
- AC50 [2]: inconclusive

SMILES: COC(=O)Nc1c(-c2ccccc2)nc2ccc(C)cn12
- IC50 [3]: > 50 µM (not active)

SMILES: Fc1cc(F)c2nc(N3CCCC3)sc2c1
- IC50 [4]: > 50 µM (inactive)

SMILES: Cc1oc2nc(SCC(=O)NCCCO)nc(N)c2c1C
- IC50 [3]: > 50 µM (not active)

SMILES: COc1ccc2c3nc4ccccc4c-3c(O)oc2c1
- EC50 [5]: > 12 µM (not active)
- EC50 [6]: 7.49 µM (active)
- EC50 [7]: < 0.1 µM (active)
- EC50 [8]: > 79.4 µM (not active)
- EC50 [9]: 20.1 µM (inconclusive)
- EC50 [10]: 0.533 µM (active)
- EC50 [11]: 8.33 µM (active)
- EC50 [12]: 0.393 µM (active)

SMILES: COc1ccc(NC(=O)c2oc3ccccc3c2NC(=O)c2ccc(OC)c(OC)c2)c(OC)c1
- EC50 [13]: > 20 µM (not active)
- EC50 [14]: > 20 µM (not active)

SMILES: COCCNC(=O)CSc1nnc2c(Cl)cc(Cl)cn12
- IC50 [4]: > 50 µM (inactive)

SMILES: CCNC(=S)NC(=Nc1nc(C)cc(C)n1)NCc1cccnc1
- IC50 [15]: 9.16 µM (active)
- IC50 [16]: > 50 µM (inactive)
- IC50 [17]: > 66 µM (inactive)
- IC50 [18]: > 66 µM (inactive)

SMILES: Cc1ccc(/C=C/C(=O)Nc2ccc(Oc3ccccc3)cc2)o1
- AC50 [19]: 5.29 µM (active)
- IC50 [20]: > 69.6 µM (inactive)
- IC50 [21]: > 69.6 µM (inactive)

SMILES: CCC(C)NCCCCOc1ccc(Cl)cc1C (centres undefined)
- AC50 [22]: > 20 µM (inactive)

SMILES: CC(C)CN(CC(C)C)C1=N/C(=C\c2ccco2)C(=O)N1c1ccccc1
- AC50 [2]: inconclusive

SMILES: Cn1c2c(c3ccccc31)CCSC2=O
- CC50 [23]: > 50 µM (active)
- IC50 [4]: > 50 µM (inactive)

SMILES: CC1CCN(C(=O)c2ccc3ccccc3c2)CC1
- EC50 [5]: 1.09 µM (active)
- EC50 [24]: < 0.1 µM (active)
- EC50 [7]: 35 µM (active)
- EC50 [9]: > 120 µM (not active)
- EC50 [10]: 10.2 µM (active)
- EC50 [12]: 0.449 µM (active)

SMILES: CCN(CCNC(=O)C1CCN(Cc2nc(-c3ccc(Cl)cc3)oc2C)CC1)c1ccccc1
- EC50 [13]: > 20 µM (not active)
- EC50 [14]: > 20 µM (not active)
- EC50 [25]: 6.02 µM (active)
- EC50 [26]: 6.26 µM (active)
- AC50 [27]: 4.08 µM (active)

SMILES: C/C(NCCN1CCOCC1)=C1/C(=O)NC(=O)N(Cc2ccccc2)C1=O
- AC50 [28]: 25.1 µM (inconclusive)
- AC50 [2]: inconclusive

SMILES: COc1ccc(C2N(c3ccccc3)CCN2c2ccccc2)cc1O
- IC50 [4]: > 50 µM (inactive)

SMILES: COc1ccc(-c2csc(NC(=O)COC(=O)c3ccco3)n2)cc1
- EC50 [5]: > 12 µM (not active)
- EC50 [24]: 35.9 µM (active)
- EC50 [7]: 29 µM (active)
- EC50 [9]: 0.188 µM (active)
- EC50 [10]: > 12 µM (not active)
- EC50 [12]: > 12 µM (not active)

SMILES: COc1ccc(OC)c(C2CC(=O)N3CN(c4ccccc4)CSC3=C2C#N)c1 (centres undefined)
- IC50 [15]: 6.54 µM (active)
- IC50 [16]: > 50 µM (inactive)
- IC50 [29]: 11.8 µM (active)

SMILES: COc1ccc(-c2ccc(CN3C(C(C)C)C(=O)N(Cc4cn(Cc5ccco5)nn4)CCS3(=O)=O)cc2)cc1OC (centres undefined)
- IC50 [20]: > 69.5 µM (inactive)
- IC50 [21]: > 69.5 µM (inactive)

SMILES: COc1ccc(/N=C2\SC(CC(=O)Nc3ccc(F)cc3)C(=O)N2Cc2ccco2)cc1 (centres undefined)
- IC50 [20]: > 69.5 µM (inactive)
- IC50 [21]: > 69.5 µM (inactive)
